Measurements taken from patent US12596108B2, “Automated lipid exchange-mass spectrometry systems and methods” (ARIZONA BOARD OF REGENTS ON BEHALF OF THE UNIVERSITY OF …, priority 2020, dated 2026).

Molecular target: T1, AmtB, an E. coli ammonia channel (Escherichia coli, UniProt P69681)
T1 construct: HIS (polyhistidine) (N, cleaved yes); MBP (N, cleaved yes); TEV site (N, cleaved yes); made in house; host or cells: E. coli
Experiment: Lipid exchange-mass spectrometry (LX-MS) between AmtB nanodiscs and tagged empty nanodiscs
Assay type: binding
Conditions: for optimal ratio for AmtB POPC/POPG (isolipid point) / lipid preference of AmtB (in words): LX-MS; for lipid preference of AmtB (in words) / isolipid point (mole fraction where Xp−Xt=0): POPC/POPG nanodiscs; for isolipid point (mole fraction where Xp−Xt=0): exchange at room temperature (21-23° C.) over 2.8 days, sigmoidal fit of Xt versus Xp−Xt
Procedure: AmtB, an E. coli ammonia channel, was incorporated into untagged nanodiscs with 50/50 1-palmitoyl-2-oleoyl-sn-glycero-3-phosphocholine (POPC)/1-palmitoyl-2-oleoyl-sn-glycero-3-phospho-(1′-racglycerol) (POPG). Polyhistidine-tagged empty nanodiscs without AmtB were also prepared at various POPC/POPG ratios ranging from 0 to 100% POPC. In one embodiment, the ratios were 0%, 20%, 40%, 50%, 60%, 80%, and 100% POPC Tagged empty nanodiscs were mixed with untagged AmtB nanodiscs, and the mixture was allowed to exchange at room temperature (21-23° C.) over 2.8 days. After exchange, internal standards containing PC and PG lipids with different tail lengths were added, and the total lipid mole fraction of POPC, Xt, was measured (tagged and untagged) by direct infusion MS. Then, the tagged empty nanodiscs were removed by passing the mixture over immobilized metal affinity chromatography (IMAC) beads, and the untagged AmtB nanodiscs were measured alone to determine the lipid mole fraction in the membrane protein nanodiscs, Xp. Preliminary experiments confirmed that the exchange was within experimental error (typically 2-4% absolute mole fraction) by 2.8 days, but a full examination of kinetics was not performed due to limited amounts of sample.
At high total POPC, AmtB shifted the equilibrium to acquire more POPG in the AmtB nanodiscs. Conversely, at low POPC levels, AmtB shifted the equilibrium to enrich the AmtB nanodiscs in POPC.
After establishing that AmtB remodels the local membrane environment, Xt versus Xp−Xt was fit to a sigmoidal curve and the x-intercept where Xp−Xt=0 was determined. At this mole fraction, which is termed the isolipid point, the lipid composition of the membrane protein nanodiscs is the same as the empty nanodiscs. The composition of the annular lipids matches the bulk lipid bilayer at the isolipid point.
The 50% POPC AmtB nanodiscs were mixed with empty nanodiscs assembled with the polyhistidine tagged MSP1E3D1 in POPC/(POPC+POPG) mole fractions of 0, 20, 40, 60, 80, or 100% at a 1:1 molar ratio and a final concentration of 2.3 μM AmtB nanodiscs. To extend the titration to a lower total POPC mole fraction (Xt), the AmtB nanodiscs were mixed with 0% POPC empty nanodiscs at a 1:2.6 molar ratio while keeping the AmtB nanodiscs at 2.3 μM. The mixtures were incubated at room temperature (21-23° C.) for 2.8 days to allow the lipid exchange to reach equilibrium. […] Control experiments were also performed using 50% POPC untagged empty nanodiscs mixed with empty nanodiscs assembled with the polyhistidine-tagged MSP1E3D1 in POPC/(POPC+POPG) mole fractions of 0, 20, 40, 60, 80, or 100% at a 1:1 molar ratio and a final concentration of 2.3 μM MSP as well as at a 1:2.6 molar ratio with 0% nanodiscs.
After exchanging, tagged empty nanodiscs and untagged (either empty or AmtB) nanodiscs were separated by IMAC using a Ni-NTA His SpinTrap (GE Healthcare). Because small exchange volumes of roughly 16 μL were used, around ⅓ of the 100 μL column volume was removed for a final column volume around 66 μL. The SpinTrap was prepared by three washes of 450 μL loading buffer (20 mM imidazole, 0.2 M ammonium acetate, pH 7.6) to equilibrate the column. Prior to addition to the beads, the imidazole concentration of the exchange mixture was adjusted to 20 mM by adding a 1 M imidazole solution (pH 7.6 adjusted with acetic acid) to limit the non-specific binding of the untagged nanodiscs. Then, the exchange reaction mixture was added to the IMAC beads and allowed to incubate for 1-2 minutes at 4° C. The flow-through was removed by centrifugation at 100 g for 45 seconds, and extra loading buffer of 20 μL was added to the column and washed under the same centrifugation procedures. […] Thus, the first wash was collected for MS analysis to maximize the lipid concentration. Around 20 μL was typically recovered. After separation, the His SpinTrap was cleaned with three washes of 450 μL elution buffer (400 mM imidazole, 0.2 M ammonium acetate, pH 7.8). […]

T1 sequence (P69681 23-428): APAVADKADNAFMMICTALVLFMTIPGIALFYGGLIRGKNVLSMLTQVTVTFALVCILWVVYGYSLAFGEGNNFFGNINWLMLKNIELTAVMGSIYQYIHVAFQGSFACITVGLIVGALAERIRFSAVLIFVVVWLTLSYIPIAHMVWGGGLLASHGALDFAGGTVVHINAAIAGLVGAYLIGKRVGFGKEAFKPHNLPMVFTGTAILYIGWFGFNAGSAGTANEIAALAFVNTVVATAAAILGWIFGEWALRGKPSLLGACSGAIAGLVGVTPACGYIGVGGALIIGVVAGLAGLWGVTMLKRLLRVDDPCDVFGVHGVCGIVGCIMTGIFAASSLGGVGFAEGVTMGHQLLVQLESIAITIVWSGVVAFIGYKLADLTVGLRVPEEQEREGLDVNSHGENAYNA

Compound | optimal ratio for AmtB POPC/POPG (isolipid point) | lipid preference of AmtB (in words) | isolipid point (mole fraction where Xp−Xt=0)
CCCCCCCC/C=C\CCCCCCCC(=O)O[C@H](COC(=O)CCCCCCCCCCCCCCC)COP(=O)(O)OCC(O)CO (mixture of isomers) [POPG, 1-palmitoyl-2-oleoyl-sn-glycero-3-phospho-(1′-racglycerol)] | 76 | clear preference for POPG | 76±2%
CCCCCCCC/C=C\CCCCCCCC(=O)O[C@H](COC(=O)CCCCCCCCCCCCCCC)COP(=O)([O-])OCC[N+](C)(C)C [POPC, 1-palmitoyl-2-oleoyl-sn-glycero-3-phosphocholine] | 24 | some affinity for POPC | 24±2%
